In US8268976B2, “Flea GABA receptor subunit nucleic acid molecules” (Heska Corporation, priority 2000, dated 2012):
Like-named read-outs stand apart in the source and are kept apart here.

Experiments:
[1] = tested on: cat fleas; test: Survival of dieldrin-exposed fleas from the heterozygous population, sorted by sequenced genotype at amino acid 285; type: in vivo, Ctenocephalides felis; details: 10 mM and 50 mM dieldrin, pooled
Method: The following method was used to determine the genotype of individual fleas. Individual fleas were physically crushed with a pipette tip in a microcentrifuge tube with 30 μl of DNAzol, available from Gibco BRL, Rockville, Md., then heated to 95° C. for 5 minutes. The mixture was centrifuged for 2 minutes, the liquid was removed and DNA was precipitated with ethanol. The precipitated DNA was centrifuged, the ethanol was removed and the pellet was resuspended in 30 μl of distilled water. […] The following PCR thermocycling and reaction conditions were used (1) one cycle of 95° C. for 30 seconds, (2) 35 cycles of 94° C. for 10 seconds, 52° C. for 30 seconds, and 72° C. 30 seconds, in reactions containing 1× AmpliTaq Buffer, 2.0 U AmpliTaq polymerase, available from Perkin Elmer, Foster City, Calif., 0.2 mM dNTP's, and 0.5 uM each primer.
The PCR product was separated by gel electrophoresis and purified using a Qiaquick™ column, available from Qiagen to produce an approximately 240-nucleotide molecule. The 240-nucleotide product was then sequenced using primers 285for and 285rev and dRhodamine terminator chemistry and the sequence was read to determine whether the individual was homozygous for serine or alanine, or a heterozygote.
(§1) Dieldrin was dissolved in dimethylsulfoxide (DMSO) at concentrations ranging from 0.001 mM to 1000 mM. About 1 ul of dissolved dieldrin from each concentration was spotted onto a 6 mm diameter GF/C filter disk (Whatman, Inc. Clifton, N.J.) in the bottom of a 4 ml screw-top glass vial and allowed to air dry for 24 hours. Negative control vials were prepared in the same manner except that no dieldrin was dissolved in the DMSO. Each dieldrin concentration was tested in triplicate for each of the three flea populations. About 25 newly emerged cat fleas were sedated at 4° C. and transferred to each vial. Each vial was sealed with a thin, perforated Teflon septum secured by an open top screw cap and held vertically in the dark. After about 30 hours, the healthy live, moribund, and dead fleas in each vial were counted.

[2] = tested on: cat fleas; test: Dieldrin filter-disk vial exposure of fleas, mortality (LC50) per flea population; details: Ctenocephalides felis, in Felis catus, 30 h, about 1 ul of DMSO solution on filter disk in vial, about 30 hours
Method: as §1

## ClC1=C(Cl)[C@]2(Cl)[C@@H]3[C@@H]4C[C@@H]([C@H]5O[C@@H]45)[C@@H]3[C@@]1(Cl)C2(Cl)Cl [dieldrin]
[1]; of 1 homozygous alanine flea
  number of dead fleas: 1
[1]; of 21 homozygous serine fleas
  number of dead fleas: 4
  number of live fleas: 16
  number of moribund fleas: 1
[1]; of 29 heterozygotes
  number of dead fleas: 24
  number of live fleas: 2
  number of moribund fleas: 3
[2]; read-out: LC50 (concentration of dieldrin at which 50% of the fleas were killed), heterozygous alanine/serine flea population (amino acid 285)
  LC50: 1 mM
[2]; read-out: LC50 (concentration of dieldrin at which 50% of the fleas were killed), homozygous alanine flea population (amino acid 285)
  LC50: 0.2 mM
[2]; read-out: LC50 (concentration of dieldrin at which 50% of the fleas were killed), homozygous serine flea population (amino acid 285)
  LC50: 30 mM
